In publication PMC9995496, “A screen for MeCP2-TBL1 interaction inhibitors using a luminescence-based assay” (Scientific Reports, 2023):
Counter-ions that a name gives are not always drawn. Like-named read-outs stand apart in the source and are kept apart here.

System: PRKACA-PRKAR2A interaction (SmBiT-PRKACA / LgBiT-PRKAR2A), protein kinase A
Parameters: NanoLuc complementation counter-screen in cell extract, PRKACA with PRKAR2A, loss of luminescence, detects NanoLuc interference
Details: 0.5 h, 20 µM, inhibitor
[1] = counter-screen for NanoLuc interference
[2] = counter-screen for NanoLuc interference, Inh (PKA)

Structure (SMILES) | Inh (PKA) [1] [%] | further results
CCC(CC)O[C@@H]1C=C(C(=O)O)C[C@H](N)[C@H]1NC(C)=O [UM0141596:01, Oseltamivir acid] | 1.334 | 
COC(=O)[C@H](Cc1cccc(C(=N)N)c1)[C@@H](C)NC(=O)c1ccc(-c2cc[n+]([O-])cc2)cc1 [UM0141597:01, Otamixaban] | 3.513 | 
Nc1nc2[nH]cc(CCc3ccc(C(=O)N[C@@H](CCC(=O)O)C(=O)O)cc3)c2c(=O)[nH]1 [UM0141598:01, Pemetrexed disodium hemipenta hydrate] |  | Inh (PKA) [2]: 0.5825%
CCCC(CCC)C(=O)O [UM0141598:02, Valproic acid sodium salt (Sodium valproate)] |  | Inh (PKA) [2]: 0.874%
O=C(O)CCCc1ccccc1 [UM0141598:03, Sodium Phenylbutyrate] | 1.56 | 
OC[C@H]1O[C@@H](n2cnc3c2N=CNC[C@H]3O)C[C@@H]1O [UM0141599:01, Pentostatin] | 1.284 | 
CCC(CC)[C@H](NC(C)=O)[C@@H]1[C@H](O)[C@@H](C(=O)O)C[C@H]1NC(=N)N [UM0141600:01, Peramivir] |  | Inh (PKA) [2]: 2.459%
Cc1nc(Nc2n[nH]c3c2CN(C(=O)N[C@H](CN(C)C)c2ccccc2)C3(C)C)c2sccc2n1 [UM0141601:01, PF-3758309] | 66.65 | 
Nc1nccc(-c2c(-c3ccc(F)cc3)ncn2C2CCCCC2)n1 [UM0141603:01, PF-670462] | 48.77 | 
O=C(CCN1CCN(C(=O)OCc2cc(Cl)cc(Cl)c2)CC1)c1ccc2[nH]c(=O)oc2c1 [UM0141604:01, PF-8380] | 13.11 | 
O=C1NCCc2[nH]c(-c3ccncc3)cc21 [UM0141605:01, PHA-767491] | 1.427 | 
Oc1cccc(-c2nc(N3CCOCC3)c3oc4ncccc4c3n2)c1 [UM0141606:01, PI-103 Hydrochloride] |  | Inh (PKA) [2]: 17.85%
CNC(=O)c1ccccc1Nc1cc(Nc2ccc(N3CCOCC3)cc2OC)ncc1C(F)(F)F [UM0141607:01, PND-1186] | 14.93 | 
CC1=CC(=O)C(C(C)C)=C/C1=N/OC(=O)c1ccccc1C [UM0141608:01, Poloxin] | 31.48 | 
NC(=O)c1cnc(N[C@@H]2CCCC[C@@H]2N)nc1Nc1cccc(-n2nccn2)c1 [UM0141609:01, PRT062607 Hydrochloride] | 22.19 | 
CC(C)OC(=O)[C@H](C)N[P@](=O)(OC[C@H]1O[C@@H](n2ccc(=O)[nH]c2=O)[C@](C)(F)[C@@H]1O)Oc1ccccc1 [UM0141610:01, PSI-7977] | 2.04 | 
CNC(=O)c1cc(Oc2ccc(NC(=O)Nc3ccc(Cl)c(C(F)(F)F)c3)c(F)c2)ccn1 [UM0141611:01, Regorafenib monohydrate] |  | Inh (PKA) [2]: 6.023%
CNC(=O)c1cc(Oc2ccc(NC(=O)Nc3ccc(Cl)c(C(F)(F)F)c3)c(F)c2)ccn1 [UM0141611:02, Regorafenib] |  | Inh (PKA) [2]: 5.988%
CC(C)Cc1ccc([C@@H](C)C(=O)NS(C)(=O)=O)cc1 [UM0141612:01, Reparixin] |  | Inh (PKA) [2]: 5.153%
CC(C)Cc1ccc([C@@H](C)C(=O)NS(C)(=O)=O)cc1 [UM0141612:02, Reparixin L-lysine salt] |  | Inh (PKA) [2]: 7.24%
Cc1cccc(-c2[nH]ncc2-c2ccc3ncccc3n2)n1 [UM0141613:01, RepSox] | 2.359 | 

Structure (SMILES) | Inh (PKA) [1] [%] | further results
c1nc2c(NC3CCCCC3)nc(Nc3ccc(N4CCOCC4)cc3)nc2[nH]1 [UM0141614:01, Reversine] | 32.72 | 
CCOc1cc(C(C)(C)C)ccc1C1=N[C@@](C)(c2ccc(Cl)cc2)[C@@](C)(c2ccc(Cl)cc2)N1C(=O)N1CCN(CCCS(C)(=O)=O)CC1 [UM0141616:01, RG7112] | 18.3 | 
COc1cc(C(=O)O)ccc1NC(=O)[C@@H]1N[C@@H](CC(C)(C)C)[C@](C#N)(c2ccc(Cl)cc2F)[C@H]1c1cccc(Cl)c1F [UM0141617:01, RG7388] | 51.62 | 
Cc1cc(/C=C/C#N)cc(C)c1Nc1ccnc(Nc2ccc(C#N)cc2)n1 [UM0141618:01, Rilpivirine] | 30.56 | 
COC(=O)N(C)c1c(N)nc(-c2nn(Cc3ccccc3F)c3ncccc23)nc1N [UM0141619:01, Riociguat] | 2.487 | 
CCN(C)C(=O)Oc1cccc([C@H](C)N(C)C)c1 [UM0141620:01, Rivastigmine] |  | Inh (PKA) [2]: 1.357%
O=C(NCc1cccc(O)c1)Nc1nc(-c2ccncc2)cs1 [UM0141621:01, RKI-1447] | -11 | 
N#CC[C@H](C1CCCC1)n1cc(-c2ncnc3[nH]ccc23)cn1 [UM0141622:01, Ruxolitinib phosphate] |  | Inh (PKA) [2]: 28.19%
CC(C)=CCC/C(C)=C/CC/C(C)=C/CSc1ccccc1C(=O)O [UM0141623:01, Salirasib] | 61.94 | 
CC(C)(C)NC(=O)[C@@H]1C[C@@H]2CCCC[C@@H]2CN1C[C@@H](O)[C@H](Cc1ccccc1)NC(=O)[C@H](CC(N)=O)NC(=O)c1ccc2ccccc2n1 [UM0141624:01, Saquinavir mesylate] | 9.291 | 
COc1nccc(-c2c(-c3ccc(F)cc3)ncn2[C@H]2CC[C@H](O)CC2)n1 [UM0141625:01, SB 239063] | 17.29 | 
O=C(Nc1ccc2[nH]nc(-c3ccncc3)c2c1)[C@@H]1CCN(CC(=O)N2CCN(c3ccc(-c4ncccn4)cc3)CC2)C1 [UM0141626:01, SCH772984] |  | Inh (PKA) [2]: 11.73%
CCOc1ccc(Oc2ccc(OCc3cc(F)ccc3F)cc2)c(N)c1 [UM0141627:01, SEA0400] | 3.449 | 
CCCc1nn(C)c2c(=O)[nH]c(-c3cc(S(=O)(=O)N4CCN(C)CC4)ccc3OCC)nc12 [UM0141628:01, Sildenafil] |  | Inh (PKA) [2]: -0.5342%
COc1ccc2c(O[C@@H]3C[C@H]4C(=O)N[C@]5(C(=O)NS(=O)(=O)C6CC6)C[C@H]5/C=C\CCCCN(C)C(=O)[C@@H]4C3)cc(-c3nc(C(C)C)cs3)nc2c1C [UM0141629:01, Simeprevir] |  | Inh (PKA): 16.13
O=C1c2ccccc2C(=O)c2oc(-c3ccccc3)nc21 [UM0141630:01, SJB2-043] | 4.073 | 
O=C1c2ccc(Nc3ccc(F)cc3F)cc2CCc2ccc(OC[C@H](O)CO)cc21 [UM0141631:01, Skepinone-L] | 17.25 | 
CC(C)NC(=O)COc1cccc(-c2nc(Nc3ccc4[nH]ncc4c3)c3ccccc3n2)c1 [UM0141632:01, SLx-2119] | 49.23 | 
Cc1c[nH]c(/C=C2\C(=O)Nc3ccccc32)c1CCC(=O)O [UM0141633:01, SU 5402] | 46.56 | 
CCOC(=O)C1=CCCC[C@H]1S(=O)(=O)Nc1ccc(F)cc1Cl [UM0141634:01, TAK-242] | 47.57 | 
COc1cccc2c1c(O)c(C(=O)N(C)c1ccc(C(F)(F)F)cc1)c(=O)n2C [UM0141635:01, Tasquinimod] | 2.103 | 

Structure (SMILES) | Inh (PKA) [1] [%] | further results
Fc1ccccc1-c1nc2ccn(Cc3ccc(-c4ccc(C(F)(F)F)cc4C(F)(F)F)nn3)cc-2n1 [UM0141636:01, Tegobuvir] | 1.649 | 
Cc1cc(N2CCN([C@@H]3CN[C@H](C(=O)N4CCSC4)C3)CC2)n(-c2ccccc2)n1 [UM0141637:01, Teneligliptin hydrobromide] |  | Inh (PKA): -1.766%
Cn1c(COP(=O)(NCCBr)NCCBr)cnc1[N+](=O)[O-] [UM0141638:01, TH-302] |  | Inh (PKA): 1.841%
N=C1CCCN1Cc1[nH]c(=O)[nH]c(=O)c1Cl [UM0141639:01, Tipiracil hydrochloride] | 0.165 | 
Cn1c(=O)cc(N2CCC[C@@H](N)C2)n(Cc2cc(F)ccc2C#N)c1=O [UM0141640:01, Trelagliptin] | -0.04176 | 
CC(C)[C@]12O[C@H]1[C@@H]1O[C@]13[C@]1(O[C@H]1C[C@H]1C4=C(CC[C@@]13C)C(=O)OC4)[C@@H]2O [UM0141641:01, Triptolide] | 1.248 | 
Cc1ccc(-c2csc3ncnc(SCCC(=O)O)c23)cc1 [UM0141643:01, TTP 22] | 12.61 | 
CCC1=C[C@@H]2CN(C1)Cc1c([nH]c3ccccc13)[C@@](C(=O)OC)(c1cc3c(cc1OC)N(C)[C@H]1[C@@](O)(C(=O)OC)[C@H](OC(C)=O)[C@]4(CC)C=CCN5CC[C@]31[C@@H]54)C2 [UM0141644:01, Vinorelbine ditartrate] | 3.937 | 
Cc1cnc(Nc2ccc(F)cc2Cl)nc1-c1c[nH]c(C(=O)N[C@H](CO)c2cccc(Cl)c2)c1 [UM0141646:01, VX-11e] | 14.62 | 
O=C(Nc1ccc(-c2ccnc(Nc3ccc(N4CCOCC4)cc3)n2)cc1)C1CCCN1 (centres unmarked) [UM0141648:01, XL019] | -3.897 | 
CC(C)c1cc(CNc2nc(Nc3cc(C4CC4)[nH]n3)cc(N3CCN(C)CC3)n2)on1 [UM0141649:01, XL228] | 43.07 | 
CCOc1cc(C(=O)N2CCC(N3CCN(C)CC3)CC2)ccc1Nc1ncc2c(n1)N(C1CCCC1)c1ccccc1C(=O)N2C [UM0141651:01, XMD17-109] | 18.58 | 
CCOc1cc(N2CCC(O)CC2)ccc1Nc1ncc2c(n1)N(C)c1ccccc1C(=O)N2C [UM0141652:01, XMD8-92] | 14.04 | 
COc1ccc(C(=O)CC2(O)C(=O)Nc3c(Cl)ccc(Cl)c32)cc1 (centres unmarked) [UM0141653:01, YK-4-279] | 4.248 | 
C[C@]1(c2nc3c(C(N)=O)cccc3[nH]2)CCCN1 [UM0141654:01, Veliparib dihydrochloride] | 0.673 | 
N[C@@H]1CCCN(c2c(/C=C3\SC(=O)NC3=O)cccc2-c2ccccc2)C1 [UM0141655:01, AZD1208] | 21.79 | 
CC(=O)O/N=C1\C(=O)N(Cc2cc(Cl)ccc2Cl)c2ccc(Cl)cc21 [UM0141658:01, LDN 57444] | 84.34 | 
Cc1ccc(/C=C2\CNC/C(=C\c3ccc(C)cc3)C2=O)cc1 [UM0141659:01, NSC 632839 hydrochloride] | 12.94 | 
CC(C)(C(=O)NCC(F)(F)C(F)(F)F)C(=O)N[C@@H]1C(=O)Nc2ccccc2-c2ccccc21 [UM0141660:01, RO4929097] | 10.15 | 
O=C(O)CC[C@H]1CC[C@@](c2cc(F)ccc2F)(S(=O)(=O)c2ccc(Cl)cc2)CC1 [UM0141661:01, MK-0752] | 5.084 | 
